The source made the active and inactive calls. How the calls were made is not given here.

The test system of the series is CCRIS mutagenicity, Ames/micronucleus/aberration tests. Briefly: CCRIS mutagenicity studies.
The mark [1] stands for this setting: Test System: AMES SALMONELLA TYPHIMURIUM, Strain/Indicator: TA98, Metabolic Activation: NONE, Method: STANDARD PLATE.
Where [2] appears, read: Test System: AMES SALMONELLA TYPHIMURIUM, Strain/Indicator: TA100, Metabolic Activation: NONE, Method: STANDARD PLATE.
The mark [3] stands for this setting: Test System: AMES SALMONELLA TYPHIMURIUM, Strain/Indicator: TA98, Metabolic Activation: NONE, Method: PREINCUBATION
Where [4] appears, read: Test System: AMES SALMONELLA TYPHIMURIUM, Strain/Indicator: TA100, Metabolic Activation: NONE, Method: PREINCUBATION

Turning to `Nc1c(N=Nc2ccc([N+](=O)[O-])cc2)c(S(=O)(=O)O)cc2cc(S(=O)(=O)O)c(N=Nc3ccccc3)c(O)c12`, the mutagenic call runs as follows: under setting [1], “active; positive”; (Test System: AMES SALMONELLA TYPHIMURIUM, Strain/Indicator: TA98, Metabolic Activation: RAT, LIVER, S-9, PHENOBARBITAL, Method: STANDARD PLATE) “active; positive”; under setting [2], “inactive; negative”; (Test System: AMES SALMONELLA TYPHIMURIUM, Strain/Indicator: TA100, Metabolic Activation: RAT, LIVER, S-9, PHENOBARBITAL, Method: STANDARD PLATE) “active; positive”.

Turning to `C#CC(OC(=O)NC1CCCCC1)(c1ccccc1)c1ccc(C)c(C)c1` (configuration not stated), the mutagenic call runs as follows: under setting [2], “active; positive”; (Test System: AMES SALMONELLA TYPHIMURIUM, Strain/Indicator: TA1535, Metabolic Activation: NONE, Method: STANDARD PLATE) “active; positive”; (Test System: UDS HUMAN FIBROBLASTS, Strain/Indicator: THY INCORP (NON-S-PHASE), Metabolic Activation: NONE, Method: AUTORADIOGRAPHY) “active; positive”.

Take `CCOc1cc(C=O)ccc1O`: the mutagenic call is, setting by setting: (Test System: AMES SALMONELLA TYPHIMURIUM, Strain/Indicator: TA97, Metabolic Activation: NONE, Method: PREINCUBATION) “inactive; negative”; (Test System: AMES SALMONELLA TYPHIMURIUM, Strain/Indicator: TA97, Metabolic Activation: RAT, LIVER, S-9, AROCLOR 1254, Method: PREINCUBATION) “inactive; negative”; under setting [3], “inactive; negative”; (Test System: AMES SALMONELLA TYPHIMURIUM, Strain/Indicator: TA98, Metabolic Activation: RAT, LIVER, S-9, PHENOBARBITAL AND BETA-NAPHTHOFLAVONE, Method: PREINCUBATION) “inactive; negative”; under setting [4], “inactive; negative”; (Test System: AMES SALMONELLA TYPHIMURIUM, Strain/Indicator: TA100, Metabolic Activation: RAT, LIVER, S-9, PHENOBARBITAL AND BETA-NAPHTHOFLAVONE, Method: PREINCUBATION) “inactive; negative”. Besides, the mutagenic call is “inactive; negative” (Test System: AMES SALMONELLA TYPHIMURIUM, Strain/Indicator: TA102, Metabolic Activation: NONE, Method: PREINCUBATION); “inactive; negative” (Test System: AMES SALMONELLA TYPHIMURIUM, Strain/Indicator: TA102, Metabolic Activation: RAT, LIVER, S-9, AROCLOR 1254, Method: PREINCUBATION); “inactive; negative” (Test System: AMES SALMONELLA TYPHIMURIUM, Strain/Indicator: TA102, Metabolic Activation: RAT, LIVER, S-9, PHENOBARBITAL AND BETA-NAPHTHOFLAVONE, Method: PREINCUBATION); “inactive; negative” (Test System: AMES SALMONELLA TYPHIMURIUM, Strain/Indicator: TA104, Metabolic Activation: NONE, Method: PREINCUBATION); “inactive; negative” (Test System: AMES SALMONELLA TYPHIMURIUM, Strain/Indicator: TA104, Metabolic Activation: RAT, LIVER, S-9, PHENOBARBITAL AND BETA-NAPHTHOFLAVONE, Method: PREINCUBATION); “inactive; negative” (Test System: AMES SALMONELLA TYPHIMURIUM, Strain/Indicator: TA1535, Metabolic Activation: NONE, Method: PREINCUBATION). Moreover, the mutagenic call by setting is: (Test System: AMES SALMONELLA TYPHIMURIUM, Strain/Indicator: TA1535, Metabolic Activation: RAT, LIVER, S-9, PHENOBARBITAL AND BETA-NAPHTHOFLAVONE, Method: PREINCUBATION) “inactive; negative”; (Test System: AMES SALMONELLA TYPHIMURIUM, Strain/Indicator: TA1537, Metabolic Activation: NONE, Method: PREINCUBATION) “inactive; negative”; (Test System: AMES SALMONELLA TYPHIMURIUM, Strain/Indicator: TA1537, Metabolic Activation: RAT, LIVER, S-9, PHENOBARBITAL AND BETA-NAPHTHOFLAVONE, Method: PREINCUBATION) “inactive; negative”; (Test System: E. COLI, Strain/Indicator: WP2UVRA/PKM101, Metabolic Activation: NONE, Method: PREINCUBATION) “inactive; negative”; (Test System: E. COLI, Strain/Indicator: WP2UVRA/PKM101, Metabolic Activation: RAT, LIVER, S-9, PHENOBARBITAL AND BETA-NAPHTHOFLAVONE, Method: PREINCUBATION) “inactive; negative”; (Test System: E. COLI, Strain/Indicator: WP2UVRA, Metabolic Activation: NONE, Method: PREINCUBATION) “inactive; negative”. Further, the mutagenic call (Test System: E. COLI, Strain/Indicator: WP2UVRA, Metabolic Activation: RAT, LIVER, S-9, PHENOBARBITAL AND BETA-NAPHTHOFLAVONE, Method: PREINCUBATION) is “inactive; negative”.

Regarding `C/C=C/C=C/CCCCCCCOC(C)=O`, the mutagenic call reads like this: under setting [1], “inactive; negative”; (Test System: AMES SALMONELLA TYPHIMURIUM, Strain/Indicator: TA98, Metabolic Activation: RAT, LIVER, S-9, Method: STANDARD PLATE) “inactive; negative”; under setting [2], “inactive; negative”; (Test System: AMES SALMONELLA TYPHIMURIUM, Strain/Indicator: TA100, Metabolic Activation: RAT, LIVER, S-9, Method: STANDARD PLATE) “inactive; negative”; (Test System: AMES SALMONELLA TYPHIMURIUM, Strain/Indicator: TA102, Metabolic Activation: NONE, Method: STANDARD PLATE) “inactive; negative”; (Test System: AMES SALMONELLA TYPHIMURIUM, Strain/Indicator: TA102, Metabolic Activation: RAT, LIVER, S-9, Method: STANDARD PLATE) “inactive; negative”.

`O=C(OC[C@@H]1O[C@H](OC(=O)c2cc(O)c(O)c(OC(=O)c3cc(O)c(O)c(O)c3)c2)[C@@H](OC(=O)c2cc(O)c(O)c(OC(=O)c3cc(O)c(O)c(O)c3)c2)[C@H](OC(=O)c2cc(O)c(O)c(OC(=O)c3cc(O)c(O)c(O)c3)c2)[C@H]1OC(=O)c1cc(O)c(O)c(OC(=O)c2cc(O)c(O)c(O)c2)c1)c1cc(O)c(O)c(OC(=O)c2cc(O)c(O)c(O)c2)c1`: the mutagenic call was “inactive; negative” under setting [3]; “inactive; negative” (Test System: AMES SALMONELLA TYPHIMURIUM, Strain/Indicator: TA98, Metabolic Activation: RAT LIVER S-9, Method: PREINCUBATION); “inactive; negative” under setting [4]; “inactive; negative” (Test System: AMES SALMONELLA TYPHIMURIUM, Strain/Indicator: TA100, Metabolic Activation: RAT LIVER S-9, Method: PREINCUBATION); “inactive; negative” (Test System: AMES SALMONELLA TYPHIMURIUM, Strain/Indicator: TA102, Metabolic Activation: RAT LIVER S-9, PHENOBARBITAL AND 5,6-BENZOFLAVONE, Method: STANDARD PLATE); “inactive; negative” (Test System: AMES SALMONELLA TYPHIMURIUM, Strain/Indicator: TA2638, Metabolic Activation: RAT LIVER S-9, PHENOBARBITAL AND 5,6-BENZOFLAVONE, Method: STANDARD PLATE). Besides, the mutagenic call (Test System: E. COLI, Strain/Indicator: WP2 (PKM101), Metabolic Activation: RAT LIVER S-9, PHENOBARBITAL AND 5,6-BENZOFLAVONE, Method: STANDARD PLATE) was “inactive; negative” and the mutagenic call (Test System: E. COLI, Strain/Indicator: WP2 UVRA (PKM101), Metabolic Activation: RAT LIVER S-9, PHENOBARBITAL AND 5,6-BENZOFLAVONE, Method: STANDARD PLATE) is “inactive; negative”.

For the compound `CNC(=O)C=Cc1ccc([N+](=O)[O-])o1`, the mutagenic call under setting [3] is “active; positive”.

In the case of `Oc1c2ccccc2c2ccc3cccc4ccc1c2c43`, the mutagenic call (Test System: CHINESE HAMSTER V-79, Strain/Indicator: V-79/8-AZAGUANINE, Metabolic Activation: NONE, Method: STANDARD PLATE) was “active; positive”.

Values taken from PubChem BioAssay AID1259407 (Chemical Carcinogenesis Research Information System (CCRIS), 2018).
